Measurements: ChEMBL document CHEMBL4422623, “Synthesis of spiro-2,6-dioxopiperazine and spiro-2,6-dioxopyrazine scaffolds using amino acids in a three-component reaction to generate potential Sigma-1 (σ1) receptor selective ligands” (Eur J Med Chem, 2019)

Assays:
[1] = target: Mu-type opioid receptor (Homo sapiens, UniProt P35372); test: Displacement of [3H]DAMGO from human mu opioid receptor expressed in HEK cells by radioligand binding assay; format: cell-based
[2] = target: 5-hydroxytryptamine receptor 2B (Homo sapiens, UniProt P41595); test: Displacement of [3H]LSD from human 5-HT2B receptor expressed in HEK cells by radioligand binding assay; format: cell-based
[3] = target: Kappa-type opioid receptor (Homo sapiens, UniProt P41145); test: Displacement of [3H]U69593 from human kappa opioid receptor expressed in HEK cells by radioligand binding assay; format: cell-based
[4] = target: Sigma non-opioid intracellular receptor 1 (Cavia porcellus, UniProt Q60492); test: Displacement of [3H]Pentazocine from guinea pig sigma-1 receptor by radioligand binding assay
[5] = target: T1, D(4) dopamine receptor (Homo sapiens, UniProt P21917); test: Displacement of [3H]N-methylspiperone from human D4 receptor by radioligand binding assay
T1 sequence (P21917 whole entry): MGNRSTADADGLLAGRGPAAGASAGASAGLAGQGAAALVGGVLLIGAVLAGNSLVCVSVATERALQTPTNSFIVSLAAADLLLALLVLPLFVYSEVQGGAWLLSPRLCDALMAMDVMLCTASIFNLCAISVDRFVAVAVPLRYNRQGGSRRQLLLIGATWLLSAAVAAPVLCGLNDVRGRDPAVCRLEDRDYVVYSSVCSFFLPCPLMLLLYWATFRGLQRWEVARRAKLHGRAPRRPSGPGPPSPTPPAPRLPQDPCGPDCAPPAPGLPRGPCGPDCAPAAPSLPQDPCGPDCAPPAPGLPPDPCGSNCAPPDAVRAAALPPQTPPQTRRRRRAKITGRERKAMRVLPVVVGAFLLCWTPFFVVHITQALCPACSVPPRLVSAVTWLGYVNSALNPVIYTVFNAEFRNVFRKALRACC

[6] = target: Sodium-dependent dopamine transporter (Homo sapiens, UniProt Q01959); test: Displacement of [3H]WIN35428 from human DAT receptor expressed in HEK cells by radioligand binding assay; format: cell-based
[7] = target: T2, Alpha-2A adrenergic receptor (Homo sapiens, UniProt P08913); test: Displacement of […] from human adrenergic alpha 2A receptor expressed in MDCK cells by radioligand binding assay; format: cell-based
T2 sequence (P08913 whole entry): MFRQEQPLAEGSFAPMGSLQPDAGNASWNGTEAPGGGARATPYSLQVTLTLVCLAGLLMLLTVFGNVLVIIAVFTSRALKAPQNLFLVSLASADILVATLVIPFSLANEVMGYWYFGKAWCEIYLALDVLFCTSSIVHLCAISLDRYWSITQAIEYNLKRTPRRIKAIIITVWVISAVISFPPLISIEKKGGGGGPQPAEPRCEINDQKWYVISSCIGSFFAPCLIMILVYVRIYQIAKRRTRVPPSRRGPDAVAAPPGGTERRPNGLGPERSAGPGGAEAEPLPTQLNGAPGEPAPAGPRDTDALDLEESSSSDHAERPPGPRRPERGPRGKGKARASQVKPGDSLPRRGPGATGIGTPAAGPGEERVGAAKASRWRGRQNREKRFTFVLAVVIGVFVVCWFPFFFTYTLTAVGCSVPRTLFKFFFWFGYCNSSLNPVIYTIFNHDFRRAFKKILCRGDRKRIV

[8] = target: 5-hydroxytryptamine receptor 7 (Homo sapiens, UniProt P34969); test: Displacement of [3H]LSD from human 5-HT7 receptor expressed in HEK cells by radioligand binding assay; format: cell-based
[9] = target: Histamine H2 receptor (Homo sapiens, UniProt P25021); test: Binding affinity to human histamine 2 receptor expressed in HEK cells by radioligand binding assay; format: cell-based
[10] = target: T3, Sigma intracellular receptor 2 (Rattus norvegicus, UniProt Q5U3Y7); test: Displacement of [3H]DTG from sigma-2 receptor in rat PC12 cells by radioligand binding assay; format: cell-based
T3 sequence (Q5U3Y7 whole entry): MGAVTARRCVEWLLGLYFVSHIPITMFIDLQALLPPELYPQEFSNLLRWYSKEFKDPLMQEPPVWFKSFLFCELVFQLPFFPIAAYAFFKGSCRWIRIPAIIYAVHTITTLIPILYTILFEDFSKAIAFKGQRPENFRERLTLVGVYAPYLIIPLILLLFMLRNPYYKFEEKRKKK

Sequence of Mu-type opioid receptor (P35372 whole entry): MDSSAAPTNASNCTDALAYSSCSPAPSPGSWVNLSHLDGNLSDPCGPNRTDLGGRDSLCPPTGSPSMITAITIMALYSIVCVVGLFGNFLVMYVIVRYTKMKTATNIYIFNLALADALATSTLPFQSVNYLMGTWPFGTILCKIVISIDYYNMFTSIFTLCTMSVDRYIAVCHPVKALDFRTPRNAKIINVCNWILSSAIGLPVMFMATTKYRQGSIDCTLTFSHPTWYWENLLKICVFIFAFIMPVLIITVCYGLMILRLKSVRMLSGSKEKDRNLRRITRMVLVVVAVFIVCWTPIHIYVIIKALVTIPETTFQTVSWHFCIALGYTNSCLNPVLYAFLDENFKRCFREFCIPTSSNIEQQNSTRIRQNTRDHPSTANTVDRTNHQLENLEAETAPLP
Sequence of 5-hydroxytryptamine receptor 2B (P41595 whole entry): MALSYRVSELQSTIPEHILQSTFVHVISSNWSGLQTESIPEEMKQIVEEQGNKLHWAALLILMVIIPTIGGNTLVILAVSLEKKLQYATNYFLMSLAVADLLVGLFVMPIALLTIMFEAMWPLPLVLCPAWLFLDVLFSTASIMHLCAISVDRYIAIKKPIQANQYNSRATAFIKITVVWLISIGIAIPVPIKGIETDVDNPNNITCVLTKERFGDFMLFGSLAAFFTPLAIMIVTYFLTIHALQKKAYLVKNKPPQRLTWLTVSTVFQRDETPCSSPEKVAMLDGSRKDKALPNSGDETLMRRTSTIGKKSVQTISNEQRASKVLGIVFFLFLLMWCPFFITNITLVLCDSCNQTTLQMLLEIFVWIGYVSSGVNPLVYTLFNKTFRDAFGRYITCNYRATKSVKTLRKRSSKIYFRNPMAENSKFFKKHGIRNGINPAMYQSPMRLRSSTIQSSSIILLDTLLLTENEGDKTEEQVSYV
Sequence of Histamine H2 receptor (P25021 whole entry): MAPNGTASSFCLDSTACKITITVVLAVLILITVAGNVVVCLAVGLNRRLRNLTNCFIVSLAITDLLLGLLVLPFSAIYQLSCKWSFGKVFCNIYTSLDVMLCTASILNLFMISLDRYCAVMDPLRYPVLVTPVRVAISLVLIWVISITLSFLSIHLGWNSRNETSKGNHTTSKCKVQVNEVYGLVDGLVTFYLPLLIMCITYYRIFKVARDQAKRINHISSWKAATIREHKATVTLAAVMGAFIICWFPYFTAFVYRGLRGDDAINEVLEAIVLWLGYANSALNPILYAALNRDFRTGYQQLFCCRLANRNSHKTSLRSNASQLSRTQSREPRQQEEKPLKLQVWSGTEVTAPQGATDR
Sequence of 5-hydroxytryptamine receptor 7 (P34969 whole entry): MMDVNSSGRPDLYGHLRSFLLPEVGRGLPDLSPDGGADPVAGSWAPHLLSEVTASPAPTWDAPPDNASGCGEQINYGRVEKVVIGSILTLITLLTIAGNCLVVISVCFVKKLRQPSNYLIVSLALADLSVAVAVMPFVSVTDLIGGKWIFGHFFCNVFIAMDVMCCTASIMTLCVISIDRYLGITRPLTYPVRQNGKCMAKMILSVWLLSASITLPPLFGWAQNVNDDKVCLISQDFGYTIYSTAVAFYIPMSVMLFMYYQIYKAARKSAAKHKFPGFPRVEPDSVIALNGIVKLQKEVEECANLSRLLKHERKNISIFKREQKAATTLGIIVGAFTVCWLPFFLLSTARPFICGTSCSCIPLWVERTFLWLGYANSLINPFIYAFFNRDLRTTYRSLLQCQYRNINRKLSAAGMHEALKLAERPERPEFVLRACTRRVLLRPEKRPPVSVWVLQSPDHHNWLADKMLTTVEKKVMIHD
Sequence of Kappa-type opioid receptor (P41145 whole entry): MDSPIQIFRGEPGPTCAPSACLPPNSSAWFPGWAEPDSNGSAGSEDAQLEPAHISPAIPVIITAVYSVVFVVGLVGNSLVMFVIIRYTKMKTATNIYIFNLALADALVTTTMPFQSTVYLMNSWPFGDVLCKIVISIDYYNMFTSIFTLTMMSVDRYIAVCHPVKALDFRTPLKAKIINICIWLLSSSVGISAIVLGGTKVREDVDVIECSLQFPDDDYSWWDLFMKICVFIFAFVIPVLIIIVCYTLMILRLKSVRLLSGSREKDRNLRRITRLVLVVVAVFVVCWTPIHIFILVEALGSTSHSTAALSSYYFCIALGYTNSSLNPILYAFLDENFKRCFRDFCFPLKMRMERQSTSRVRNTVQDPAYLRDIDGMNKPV
Sequence of Sigma non-opioid intracellular receptor 1 (Q60492 whole entry): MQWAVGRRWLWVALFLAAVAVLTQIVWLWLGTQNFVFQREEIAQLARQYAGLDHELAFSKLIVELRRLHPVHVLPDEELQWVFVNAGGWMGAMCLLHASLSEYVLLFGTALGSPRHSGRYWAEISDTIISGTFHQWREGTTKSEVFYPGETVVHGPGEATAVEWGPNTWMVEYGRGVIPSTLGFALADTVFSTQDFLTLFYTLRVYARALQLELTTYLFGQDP
Sequence of Sodium-dependent dopamine transporter (Q01959 whole entry): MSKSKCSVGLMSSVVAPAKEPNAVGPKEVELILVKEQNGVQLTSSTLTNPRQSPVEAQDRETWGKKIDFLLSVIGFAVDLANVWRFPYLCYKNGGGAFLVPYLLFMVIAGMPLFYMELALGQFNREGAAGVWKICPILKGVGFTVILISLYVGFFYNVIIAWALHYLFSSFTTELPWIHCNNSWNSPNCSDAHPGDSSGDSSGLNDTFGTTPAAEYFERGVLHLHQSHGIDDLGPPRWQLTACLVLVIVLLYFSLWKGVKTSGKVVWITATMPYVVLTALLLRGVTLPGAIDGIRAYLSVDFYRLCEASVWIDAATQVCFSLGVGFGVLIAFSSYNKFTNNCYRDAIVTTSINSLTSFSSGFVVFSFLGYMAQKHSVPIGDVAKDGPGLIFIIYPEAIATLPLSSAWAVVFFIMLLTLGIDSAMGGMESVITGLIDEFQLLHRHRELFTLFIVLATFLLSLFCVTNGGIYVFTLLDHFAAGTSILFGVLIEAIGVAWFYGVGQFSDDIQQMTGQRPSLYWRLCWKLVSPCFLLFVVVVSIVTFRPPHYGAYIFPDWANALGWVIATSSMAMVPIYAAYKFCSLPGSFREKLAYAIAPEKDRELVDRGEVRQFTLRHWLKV

Compound | Ki [1] [nM] | Ki [2] [nM] | Ki [3] [nM] | Ki [4] [nM] | Ki [5] [nM] | Ki [6] [nM] | Ki [7] [nM] | Ki [8] [nM] | Ki [9] [nM] | Ki [10] [nM]
Cc1cccc(C)c1N1C(=O)CNC2(CCN(C)CC2)C1=O | 10000 | 742 | – | – | – | – | – | – | – | –
CC1=NC2(CCN(C)CC2)C(=O)N(c2c(C)cccc2C)C1=O | – | 231 | 1710 | 8.6 | 1280 | 2560 | 3360 | 2760 | 823 | 696
Cc1cccc(C)c1N1C(=O)[C@H](CO)NC2(CCN(C)CC2)C1=O | 1630 | 2050 | – | – | – | – | – | – | – | –
Cc1cccc(C)c1N1C(=O)[C@H](CC2CNc3ccccc32)NC2(CCN(C)CC2)C1=O (stereo partly specified) | 993 | 840 | – | – | – | – | – | – | 546 | –
